Results as given in US20250144046A1, “PHARMACEUTICAL COMPOSITIONS AND METHODS OF ADMINISTRATION” (METASTX, LLC, priority 2022, published 2025).

How the values were obtained:
PC3 cells [1] = assay: MTT assay, cancer cell metabolic activity and proliferation; type: cell-based; conditions: Homo sapiens, PC-3, 24 h treatment, read-out: IC50, anti-proliferative effect (MTT)
Procedure: A MTT (3-[4,5-dimethylthiazol-2-yl]-2,5 diphenyl tetrazolium bromide) assay was used to assess cancer cell metabolic activity and proliferation.
The protocol was as follows: • A total of 4000 PC3 cells were seeded per well in 96-well plates. Following attachment, cells were treated with vehicle control DMSO, IPA3, Compound 1, Compound 3, and Compound 4 at various doses as indicated for 24 h. Growth inhibition was determined by MTT [3-(4,5-dimethylthiazol-2-yl)-2,5-diphenyltetrazolium bromide] (Sigma-Aldrich, St. Louis, MO, USA; catalog No. M2128) assay. The MTT solution was added to the media at a final concentration of 0.8 mg/mL and cells were incubated at 37° C. for 2 hours. After aspiration of media, formazan crystals were dissolved in 100 μl of DMSO. Optical densities were measured at 570 nm using a SynergyHT plate reader (BioTek. Winooski. […]. USA). To calculate IC50 values. GraphPad Prism Software was used (GraphPad Software. San Diego, CA. USA).

PC3 cells [2] = assay: Cell-monolayer scratch assay (cell motility); type: cell-based, human; conditions: 36 hours, half of the IC50 doses from the MTT assay
Procedure: The motility of cancer cells is an index of their ability to come out of the primary tumor, invade, and metastasize to distant tissues. MetasTx tested Compound 1. Compound 3, and Compound 4 for their inhibitory effect on human metastatic prostate cancer (PC3) cells by using a ‘cell-monolayer scratch assay”, a reliable technique to determine the rate of cancer cell motility.
A total of 0.5×10^5 PC3 cells were plated per well on 6 well plates to obtain 95% confluent monolayers of cells after overnight incubation. The following day, a linear scratch (wound) was made using a 200 μl pipette tip and the detached cells were washed away by sterile phosphate-buffered saline (PBS). Images of scratches were captured from three different locations under a phase-contrast microscope at 4× magnification. The monolayers were treated with the desired doses of vehicle or drugs (half of the IC50 doses determined from the MTT assay). The cells were allowed to migrate for 36 hours, and images of the wound were re-captured from the same locations. The percentage of healed areas was determined using the NIH ImageJ software by measuring the distance of imported images in Microsoft Office PowerPoint (Microsoft Office Inc.) at the same magnification.

PC3 cells [3] = assay: Annexin V-PE / 7-AAD apoptosis and necrosis assay (flow cytometry); type: cell-based, human; conditions: 24 hours treatment
Procedure: The anti-cancer efficacy of a drug was also evaluated based on the ability of the compound to induce apoptosis and/necrosis in cancer cells. […] Compound 1. Compound 3, and Compound 4 were tested based on their ability to induce apoptosis and necrosis in vitro. The protocol was as follows:
The apoptotic death of cells was determined using an Annexin V-PE apoptosis detection kit (Cat #559763; BD Biosciences. CA. USA) according to the manufacturer's protocol. In brief. PC3 cells were treated with DMSO (0.3%). IPA3. Compound 1. Compound 3 and Compound 4 for 24 hours. At the end of treatment, cells were trypsinized, washed with PBS and stained with annexin V-Phycoerythrin (PE) and 7-Amino-Actinomycin (7-AAD). The stained cells were analyzed using a flow cytometer within 1 h of staining.

PAK4 = PAK4 (Homo sapiens, UniProt O96013); conditions: group II PAK; cited from earlier work
Chain of PAK4 (O96013 whole entry, species assumed): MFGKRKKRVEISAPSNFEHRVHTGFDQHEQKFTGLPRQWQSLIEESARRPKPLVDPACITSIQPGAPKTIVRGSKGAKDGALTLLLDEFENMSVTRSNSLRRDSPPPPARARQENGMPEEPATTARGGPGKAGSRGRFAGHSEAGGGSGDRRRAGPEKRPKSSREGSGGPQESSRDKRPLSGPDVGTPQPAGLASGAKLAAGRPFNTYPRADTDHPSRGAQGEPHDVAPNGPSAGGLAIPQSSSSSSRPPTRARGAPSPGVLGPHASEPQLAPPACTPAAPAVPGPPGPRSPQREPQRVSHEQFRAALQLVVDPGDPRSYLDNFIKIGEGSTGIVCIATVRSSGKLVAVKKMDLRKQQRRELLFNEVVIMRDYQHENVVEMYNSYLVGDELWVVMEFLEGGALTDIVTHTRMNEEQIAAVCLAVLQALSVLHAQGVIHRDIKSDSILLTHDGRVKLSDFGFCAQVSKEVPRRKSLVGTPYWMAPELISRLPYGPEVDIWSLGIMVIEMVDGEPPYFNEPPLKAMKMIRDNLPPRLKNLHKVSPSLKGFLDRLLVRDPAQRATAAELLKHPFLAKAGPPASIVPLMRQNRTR

PAK5 = PAK5 (Homo sapiens, UniProt Q9P286); conditions: group II PAK; cited from earlier work
Chain of PAK5 (Q9P286 whole entry): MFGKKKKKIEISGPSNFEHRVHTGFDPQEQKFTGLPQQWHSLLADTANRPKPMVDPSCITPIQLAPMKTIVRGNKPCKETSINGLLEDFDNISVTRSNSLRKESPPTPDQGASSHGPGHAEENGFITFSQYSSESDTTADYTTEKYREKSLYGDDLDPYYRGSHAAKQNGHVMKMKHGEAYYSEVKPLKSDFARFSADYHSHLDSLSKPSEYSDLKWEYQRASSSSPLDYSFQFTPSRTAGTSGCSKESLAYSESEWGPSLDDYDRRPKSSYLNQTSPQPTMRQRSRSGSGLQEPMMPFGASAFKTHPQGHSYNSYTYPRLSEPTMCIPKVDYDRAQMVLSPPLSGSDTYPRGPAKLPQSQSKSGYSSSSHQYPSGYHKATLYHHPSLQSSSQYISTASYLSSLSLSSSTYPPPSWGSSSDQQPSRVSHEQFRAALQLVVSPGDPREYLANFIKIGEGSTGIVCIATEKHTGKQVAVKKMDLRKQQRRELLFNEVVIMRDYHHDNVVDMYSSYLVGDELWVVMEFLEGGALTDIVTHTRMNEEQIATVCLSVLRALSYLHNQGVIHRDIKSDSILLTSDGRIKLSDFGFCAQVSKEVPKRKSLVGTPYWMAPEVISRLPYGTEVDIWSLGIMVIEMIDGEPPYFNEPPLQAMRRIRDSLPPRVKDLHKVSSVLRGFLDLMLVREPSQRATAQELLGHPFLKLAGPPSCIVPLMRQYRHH

PAK6 = PAK6 (Homo sapiens, UniProt Q9NQU5); conditions: group II PAK; cited from earlier work
Chain of PAK6 (Q9NQU5 whole entry, species assumed): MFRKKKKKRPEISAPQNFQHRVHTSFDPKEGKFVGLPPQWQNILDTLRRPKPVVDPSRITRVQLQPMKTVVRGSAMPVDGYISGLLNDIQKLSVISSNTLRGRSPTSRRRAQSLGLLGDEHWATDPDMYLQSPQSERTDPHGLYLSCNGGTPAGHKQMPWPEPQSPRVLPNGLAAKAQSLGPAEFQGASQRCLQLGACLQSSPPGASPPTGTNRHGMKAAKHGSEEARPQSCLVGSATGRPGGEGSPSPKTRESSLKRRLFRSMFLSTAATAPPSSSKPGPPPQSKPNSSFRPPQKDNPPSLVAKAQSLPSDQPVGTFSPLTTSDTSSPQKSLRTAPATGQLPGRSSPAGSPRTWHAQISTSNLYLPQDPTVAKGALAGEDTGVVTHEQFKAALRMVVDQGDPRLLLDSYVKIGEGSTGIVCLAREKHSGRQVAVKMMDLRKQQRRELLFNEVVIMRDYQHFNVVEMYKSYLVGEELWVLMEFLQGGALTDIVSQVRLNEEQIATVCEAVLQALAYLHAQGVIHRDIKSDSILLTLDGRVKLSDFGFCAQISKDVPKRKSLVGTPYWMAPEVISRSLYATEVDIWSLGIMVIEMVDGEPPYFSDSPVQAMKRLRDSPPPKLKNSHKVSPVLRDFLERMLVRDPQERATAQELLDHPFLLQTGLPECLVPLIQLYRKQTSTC

[4] = cited from earlier work

| IC50 (PC3 cells [1]) | SMILES | inhibition of PC3 cell motility compared to vehicle (DMSO)-treated control (PC3 cells [2]) | induction of apoptosis and necrosis compared to vehicle (DMSO)-treated control (PC3 cells [3]) | total cell death compared to IPA-3 (PC3 cells [3]) | inhibition of PAK4 (PAK4) | inhibition of PAK5 (PAK5) | inhibition of PAK6 (PAK6) | stability in plasma [4] |
| --- | --- | --- | --- | --- | --- | --- | --- | --- |
| 50.2 µM | Oc1ccc2ccccc2c1CSc1c(O)ccc2ccccc12 [Compound 1] | did not show significant inhibition | robust induction of apoptosis and necrosis | – | – | – | – | – |
| 22.2 µM | Oc1ccc2ccccc2c1CSCc1c(O)ccc2ccccc12 [Compound 3] | significant anti-cancer cell motility effects | robust induction of apoptosis and necrosis | superior efficacy in inducing total cell death | – | – | – | – |
| 15.5 µM | Oc1ccc2ccccc2c1CCCc1c(O)ccc2ccccc12 [Compound 4] | significant anti-cancer cell motility effects | robust induction of apoptosis and necrosis | superior efficacy in inducing total cell death | – | – | – | – |
| 28 µM | Oc1ccc2ccccc2c1SSc1c(O)ccc2ccccc12 [IPA-3, 2,2″-dihydroxy-1, 1′-dinaphthyldisulfide] | did not show significant inhibition | robust induction of apoptosis and necrosis | – | does not inhibit | does not inhibit | does not inhibit | not very stable |
